In patent publication US8461206B2, “Use of at least one (dihydro)jasmonic acid derivative for treating dry skin” (L'Oreal, priority 2003, dated 2013):

Experiments:
Format in all cases: cell-based
[1] = system: immortalized human sebocytes derived from the SZ95 line; assay: cell viability (LDH) assay; conditions: in parallel to the lipogenesis test
[2] = system: immortalized human sebocytes derived from the SZ95 line; assay: lipogenesis in immortalized human sebocytes in culture (Nile Red fluorescence); conditions: 10^-4 M, 0.1% DMSO, treatment for 48 hours, Nile Red 1 μg/ml, cells at confluence, p<0.001
Protocol: Methyl dihydrojasmonate (provided by BEDOUKIAN) was tested on a model of immortalized human sebocytes in culture, derived from the SZ95 line described in Zouboulis, C. C., Seltmann, H., Neitzel, H. & Orfanos, C. E., Establishment and Characterization of an Immortalized Human Sebaceous Gland Cell Line, J. Invest. Dermatol., 113, 1011-1020 (1999).
The test consisted in measuring the amount of lipids produced by the sebocytes of the line (at confluence), in the presence or absence of active agent diluted in DMSO, such that the final amount of DMSO in the culture medium was 0.1% and the amount of methyl dihydrojasmonate was 10^−4 M. After treatment for 48 hours, the adherent cells were treated with Nile Red (1 μg/ml). The lipid content was then quantified by measuring the fluorescence of the dye (two excitation/emission couples: 485-540 nm for the neutral lipids and 540-620 nm for the normeutral lipids). The results were given for the total lipids (combination of the two measurements).
The experiment was carried out in sextuplicate (assayed products and control) in a 96-well plate, and repeated four times.

[3] = system: immortalized human sebocytes derived from the SZ95 line; assay: cell proliferation (MUH) assay; conditions: in parallel to the lipogenesis test

CCCCCC1C(=O)CCC1CC(=O)OC (stereo not drawn) [methyl dihydrojasmonate]
modification of cell viability (LDH) [1]: not related to a modification
increase in amount of neutral lipids synthesized by the sebocytes compared to the untreated control [2]: 98%
modification of cell proliferation (MUH) [3]: not related to a modification
